From ChEMBL document CHEMBL2321685, “Lead optimization of isocytosine-derived xanthine oxidase inhibitors” (Bioorg Med Chem Lett, 2013)
One block for each molecule: values may come before it. The source made the active and inactive calls. The calls are words filed in the database; no cut-off is given here.

Assays:
[1] = target: Xanthine dehydrogenase/oxidase (Bos taurus, UniProt P80457)
Description: Inhibition of bovine xanthine oxidase-mediated uric acid production after 30 mins by spectrophotometric analysis

Rattus norvegicus [2] = experiment: Antihyperuricemic activity in rat assessed as reduction in potassium oxonate-induced serum uric acid level at 50 mg/kg, po administered at 1 hr prior to potassium oxonate-challenge measured up to 5 hrs relative to control; assay type: functional, organism-based; parameters: dose 50 mg/kg
Rattus norvegicus [3] = experiment: Antihyperuricemic activity in po dosed rat assessed as reduction in potassium oxonate-induced serum uric acid level administered at 1 hr prior to potassium oxonate-challenge measured up to 5 hrs; assay type: functional
Rattus norvegicus [4] = experiment: Antihyperuricemic activity in rat assessed as reduction in potassium oxonate-induced serum uric acid level at 30 mg/kg, po administered at 1 hr prior to potassium oxonate-challenge measured up to 5 hrs relative to allopurinol; assay type: functional; parameters: scale not given: the % may be the effect or the level left
Rattus norvegicus [5] = experiment: Antihyperuricemic activity in rat assessed as reduction in potassium oxonate-induced serum uric acid level at 10 mg/kg, po administered at 1 hr prior to potassium oxonate-challenge measured up to 5 hrs relative to allopurinol; assay type: functional; parameters: scale not given: the % may be the effect or the level left
[6] = (§1) Metabolic stability in rat liver S9 fraction assessed as compound remaining after 60 mins; assay type: ADME, subcellular; details: liver S9 fraction, read-out: Stability
[7] = (§2) Metabolic stability in rat liver microsomes assessed as compound remaining after 60 mins; assay type: ADME, Microsome; details: liver microsomes, read-out: Stability
[8] = (§3) Metabolic stability in rat plasma assessed as compound remaining after 60 mins; assay type: ADME, cell-free; details: read-out: Stability
[9] = Clearance in Sprague-Dawley rat at 2 mg/kg, iv; assay type: ADME, organism-based; parameters: dose 2 mg/kg, route intravenous; details: in vivo
[10] = Volume of distribution in Sprague-Dawley rat at 2 mg/kg, iv; assay type: ADME, organism-based; parameters: dose 2 mg/kg, route intravenous; details: in vivo
[11] = AUClast in Sprague-Dawley rat at 2 mg/kg, iv; assay type: ADME, organism-based; parameters: time 0 - last, dose 2 mg/kg, route intravenous; details: plasma
[12] = Initial plasma concentration in Sprague-Dawley rat at 2 mg/kg, iv; assay type: ADME, organism-based; parameters: dose 2 mg/kg, route intravenous
[13] = Elimination half life in Sprague-Dawley rat at 2 mg/kg, iv; assay type: ADME, organism-based; parameters: dose 2 mg/kg, route intravenous; details: in vivo, read-out: beta t1/2 (converted)
[14] = Tmax in Sprague-Dawley rat at 2 mg/kg, iv; assay type: ADME, organism-based; parameters: dose 2 mg/kg, route intravenous; details: in vivo
[15] = Cmax in Sprague-Dawley rat at 2 mg/kg, iv; assay type: ADME, organism-based; parameters: dose 2 mg/kg, route intravenous; details: in vivo
[16] = Oral bioavailability in Sprague-Dawley rat at 10 mg/kg; assay type: ADME, organism-based; details: in vivo
[17] = AUClast in Sprague-Dawley rat at 10 mg/kg, po; assay type: ADME, organism-based; parameters: time 0 - last, dose 10 mg/kg, route oral; details: plasma
[18] = Tmax in Sprague-Dawley rat at 10 mg/kg, po; assay type: ADME, organism-based; parameters: dose 10 mg/kg, route oral; details: in vivo
[19] = Elimination half life in Sprague-Dawley rat at 10 mg/kg, po; assay type: ADME, organism-based; parameters: dose 10 mg/kg, route oral; details: in vivo, read-out: beta t1/2 (converted)
[20] = (§4) Cmax in Sprague-Dawley rat at 10 mg/kg, po; assay type: ADME, organism-based; parameters: dose 10 mg/kg, route oral; details: Sprague-Dawley, in vivo
Rattus norvegicus [21] = experiment: AUClast in Sprague-Dawley rat assessed as Methyl 4-((4-(2-amino-6-hydroxypyrimidin-4-yl)-2-cyanophenoxy)methyl)cyclohexanecarboxylate level at 10 mg/kg, po; assay type: ADME, organism-based, Plasma; parameters: time 0 - last, dose 10 mg/kg, route oral; details: in vivo
Rattus norvegicus [22] = experiment: Elimination half life in Sprague-Dawley rat assessed as Methyl 4-((4-(2-amino-6-hydroxypyrimidin-4-yl)-2-cyanophenoxy)methyl)cyclohexanecarboxylate level at 10 mg/kg, po; assay type: ADME, organism-based; parameters: dose 10 mg/kg, route oral; details: in vivo
Rattus norvegicus [23] = experiment: Tmax in Sprague-Dawley rat assessed as Methyl 4-((4-(2-amino-6-hydroxypyrimidin-4-yl)-2-cyanophenoxy)methyl)cyclohexanecarboxylate level at 10 mg/kg, po; assay type: ADME, organism-based; parameters: dose 10 mg/kg, route oral; details: in vivo
Rattus norvegicus [24] = experiment: Cmax in Sprague-Dawley rat assessed as Methyl 4-((4-(2-amino-6-hydroxypyrimidin-4-yl)-2-cyanophenoxy)methyl)cyclohexanecarboxylate level at 10 mg/kg, po; assay type: ADME, organism-based; parameters: dose 10 mg/kg, route oral; details: in vivo
Rattus norvegicus [25] = experiment: as §4; assay type: ADME, organism-based; parameters: dose 10 mg/kg, route oral; details: in vivo, BLD = below limit of detection
Rattus norvegicus [26] = experiment: AUClast in Sprague-Dawley rat assessed as 2-(4-(2-amino-6-hydroxypyrimidin-4-yl)-2-cyanophenoxy)-2-methylpropanoic acid level at 10 mg/kg, po; assay type: ADME, organism-based, Plasma; parameters: time 0 - last, dose 10 mg/kg, route oral; details: in vivo
Rattus norvegicus [27] = experiment: Elimination half life in Sprague-Dawley rat assessed as 2-(4-(2-amino-6-hydroxypyrimidin-4-yl)-2-cyanophenoxy)-2-methylpropanoic acid level at 10 mg/kg, po; assay type: ADME, organism-based; parameters: dose 10 mg/kg, route oral; details: in vivo
Rattus norvegicus [28] = experiment: Tmax in Sprague-Dawley rat assessed as 2-(4-(2-amino-6-hydroxypyrimidin-4-yl)-2-cyanophenoxy)-2-methylpropanoic acid level at 10 mg/kg, po; assay type: ADME, organism-based; parameters: dose 10 mg/kg, route oral; details: in vivo
Rattus norvegicus [29] = experiment: Cmax in Sprague-Dawley rat assessed as 2-(4-(2-amino-6-hydroxypyrimidin-4-yl)-2-cyanophenoxy)-2-methylpropanoic acid level at 10 mg/kg, po; assay type: ADME, organism-based; parameters: dose 10 mg/kg, route oral; details: in vivo
Liver = experiment: as §1; assay type: ADME, subcellular; details: s9, 1 h
Liver microsomes = experiment: as §2; assay type: ADME, Microsome; details: microsomes, 1 h
Plasma = experiment: as §3; assay type: ADME, cell-free; details: 1 h

Chain of Xanthine dehydrogenase/oxidase (P80457 whole entry): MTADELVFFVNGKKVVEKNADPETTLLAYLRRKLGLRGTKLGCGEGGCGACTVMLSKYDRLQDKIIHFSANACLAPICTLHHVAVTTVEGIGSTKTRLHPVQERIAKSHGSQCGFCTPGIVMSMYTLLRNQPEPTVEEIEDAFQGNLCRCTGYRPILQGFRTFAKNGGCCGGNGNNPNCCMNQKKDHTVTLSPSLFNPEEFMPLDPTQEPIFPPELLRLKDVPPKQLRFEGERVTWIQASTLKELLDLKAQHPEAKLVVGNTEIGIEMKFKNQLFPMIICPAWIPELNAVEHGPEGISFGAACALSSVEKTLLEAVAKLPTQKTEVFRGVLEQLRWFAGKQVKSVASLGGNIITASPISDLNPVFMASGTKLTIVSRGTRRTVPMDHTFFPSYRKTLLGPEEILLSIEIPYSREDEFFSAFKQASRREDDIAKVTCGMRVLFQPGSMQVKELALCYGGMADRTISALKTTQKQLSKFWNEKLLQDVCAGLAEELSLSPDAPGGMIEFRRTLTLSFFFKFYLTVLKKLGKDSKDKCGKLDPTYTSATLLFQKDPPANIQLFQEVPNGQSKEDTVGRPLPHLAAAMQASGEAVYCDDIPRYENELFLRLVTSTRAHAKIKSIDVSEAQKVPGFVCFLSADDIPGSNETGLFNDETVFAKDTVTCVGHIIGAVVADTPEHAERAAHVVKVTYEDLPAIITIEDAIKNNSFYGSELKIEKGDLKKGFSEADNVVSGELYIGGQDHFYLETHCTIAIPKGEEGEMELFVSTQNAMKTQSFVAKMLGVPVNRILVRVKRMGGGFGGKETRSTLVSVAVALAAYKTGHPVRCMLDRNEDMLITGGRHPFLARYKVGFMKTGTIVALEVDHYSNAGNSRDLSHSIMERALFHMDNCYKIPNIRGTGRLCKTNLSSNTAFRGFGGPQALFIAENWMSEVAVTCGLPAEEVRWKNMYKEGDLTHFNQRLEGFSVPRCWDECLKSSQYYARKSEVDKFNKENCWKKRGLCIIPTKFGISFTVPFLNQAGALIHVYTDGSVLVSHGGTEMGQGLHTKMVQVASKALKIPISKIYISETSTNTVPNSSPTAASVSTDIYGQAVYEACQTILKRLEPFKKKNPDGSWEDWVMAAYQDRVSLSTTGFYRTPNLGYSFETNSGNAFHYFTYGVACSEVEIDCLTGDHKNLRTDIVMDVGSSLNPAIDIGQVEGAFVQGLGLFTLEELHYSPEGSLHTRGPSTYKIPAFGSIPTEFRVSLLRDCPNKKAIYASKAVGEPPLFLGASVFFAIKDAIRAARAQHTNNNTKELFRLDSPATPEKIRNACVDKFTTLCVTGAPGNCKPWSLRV

SMILES: N#Cc1cc(-c2cc(=O)[nH]c(N)n2)ccc1OCC1CCC1
IC50 [1]: 18 nM

SMILES: CC(C)COc1ccc(-c2cc(O)ncn2)cc1C#N
Activity (Rattus norvegicus [2]): Active

SMILES: CC(C)COc1ccc(-c2ccnc(N)n2)cc1C#N
Activity (Rattus norvegicus [3]): Dose-dependent effect
ED50 (Rattus norvegicus [3]): 10 mg/kg
Activity (Rattus norvegicus [4]): 70%
Activity (Rattus norvegicus [5]): 49%
remaining at 1 h [6]: 71.3%
remaining at 1 h [7]: 21.2%
remaining at 1 h [8]: 88.4%
clearance [9]: 10.7 mL/min/kg
Vd [10]: 5.5 L/kg
AUC(0-t) [11]: 2990 ng·h/mL
C0 [12]: 3720 ng/mL
half-life [13]: 5.96 h
Tmax [14]: 1.8 min
Cmax [15]: 9940 nM
bioavailability [16]: 13.4%
AUC(0-t) [17]: 2000 ng·h/mL
Tmax [18]: 0.75 h
half-life [19]: 1.35 h
Cmax [20]: 4190 nM
IC50 [1]: 80 nM

SMILES: CC(C)COc1ccc(-c2cc(=O)[nH]cn2)cc1C#N
remaining at 1 h [6]: 13.5%
remaining at 1 h [7]: 49.6%
remaining at 1 h [8]: 90.5%
AUC(0-t) [17]: 416 ng·h/mL
Tmax [18]: 0.25 h
half-life [19]: 9.88 h
Cmax [20]: 1150 nM
IC50 [1]: 60 nM

SMILES: COC(=O)C1CCC(COc2ccc(-c3cc(O)nc(N)n3)cc2C#N)CC1 (centres undefined)
AUClast (Rattus norvegicus [21]): 795.24 ng·h/mL
beta t1/2 (Rattus norvegicus [22]): 3.9 h
Tmax (Rattus norvegicus [23]): 2 h
Cmax (Rattus norvegicus [24]): 340 nM
Activity (Rattus norvegicus [2]): Active
remaining at 1 h [6]: 0%
remaining at 1 h [7]: 0%
remaining at 1 h [8]: 0%
Cmax (Rattus norvegicus [25]): BLD
IC50 [1]: 19 nM

SMILES: N#Cc1cc(-c2ccnc(N)n2)ccc1OCC1CCC1
IC50 [1]: 400 nM

SMILES: COC(=O)C(C)(C)COc1ccc(-c2cc(=O)[nH]c(N)n2)cc1C#N
AUClast (Rattus norvegicus [26]): 22699.83 ng·h/mL
beta t1/2 (Rattus norvegicus [27]): 11.6 h
Tmax (Rattus norvegicus [28]): 4 h
Cmax (Rattus norvegicus [29]): 8460 nM
remaining at 1 h [6]: 93.6%
remaining at 1 h [7]: 95.9%
remaining at 1 h [8]: 30.2%
AUC(0-t) [17]: 44.8 ng·h/mL
Tmax [18]: 0.75 h
half-life [19]: 2.04 h
Cmax [20]: 40 nM
IC50 [1]: 15 nM

SMILES: N#Cc1cc(-c2ccnc(N)n2)ccc1OCc1ccc(F)cc1C(F)(F)F
IC50 [1]: 80 nM

SMILES: COc1ccc(-c2cc(O)nc(N)n2)cc1C#N
IC50 [1]: 160 nM

SMILES: N#Cc1cc(-c2ccnc(N)n2)ccc1OCC1CCCCC1
IC50 [1]: 50 nM

SMILES: CC(C)COc1ccc(-c2cc(C(=O)O)nc(N)n2)cc1C#N
IC50 [1]: 400 nM

SMILES: CC(C)(C)c1ccc(COc2ccc(-c3cc(=O)[nH]c(N)n3)cc2C#N)cc1
IC50 [1]: 19 nM

SMILES: CC(C)COc1ccc(-c2cc(=O)[nH]c(N)n2)cc1C#N
remaining at 1 h [6]: 65.6%
remaining at 1 h [7]: 91.5%
remaining at 1 h [8]: 96%
C0 [12]: 1360 ng/mL
bioavailability [16]: 8.6%

SMILES: N#Cc1cc(-c2cc(=O)[nH]c(N)n2)ccc1OCc1ccccc1
IC50 [1]: 17 nM

SMILES: Cc1nc(O)cc(-c2ccc(OCC(C)C)c(C#N)c2)n1
IC50 [1]: > 30000 nM

SMILES: COC(=O)C(C)(C)COc1ccc(-c2cc(O)nc(N)n2)cc1C#N
Activity (Rattus norvegicus [2]): Active

SMILES: CC(C)COc1ccc(-c2cc(C(N)=O)nc(N)n2)cc1C#N
IC50 [1]: 3900 nM

SMILES: N#Cc1cc(-c2ccnc(N)n2)ccc1OCc1ccc(F)cc1
IC50 [1]: 150 nM

SMILES: N#Cc1cc(-c2ccnc(N)n2)ccc1OCc1ccccc1C(F)(F)F
IC50 [1]: 60 nM

Now from value to molecule, other results behind:

IC50 [1]: 7 nM
SMILES: N#Cc1cc(-c2cc(O)nc(N)n2)ccc1OCc1ccc(F)cc1

IC50 [1]: 10 nM
SMILES: CCC(CC)COc1ccc(-c2cc(=O)[nH]c(N)n2)cc1C#N

IC50 [1]: 9 nM
SMILES: N#Cc1cc(-c2cc(O)nc(N)n2)ccc1OCc1ccccc1C(F)(F)F

remaining at 1 h [8]: 99.7%
AUC(0-t) [17]: 297 ng·h/mL
Tmax [18]: 0.5 h
half-life [19]: 10.7 h
Cmax [20]: 160 nM
IC50 [1]: 4 nM
SMILES: CC(C)(C)COc1ccc(-c2cc(=O)[nH]c(N)n2)cc1C#N

remaining at 1 h [6]: 11%
remaining at 1 h [7]: 0%
remaining at 1 h [8]: 28%
IC50 [1]: 10 nM
SMILES: COC(=O)C1CCC(COc2ccc(-c3ccnc(N)n3)cc2C#N)CC1 (centres undefined)
Activity (Rattus norvegicus [3]): Active

remaining at 1 h [6]: 86.8%
remaining at 1 h [7]: 97.3%
remaining at 1 h [8]: 94%
AUC(0-t) [17]: 109 ng·h/mL
Tmax [18]: 1 h
half-life [19]: 18 h
Cmax [20]: 40 nM
IC50 [1]: 10 nM
SMILES: N#Cc1cc(-c2cc(O)nc(N)n2)ccc1OCC1CCCCC1

IC50 [1]: 11 nM
SMILES: N#Cc1cc(-c2cc(=O)[nH]c(N)n2)ccc1OCc1ccc(F)cc1C(F)(F)F

remaining at 1 h [6]: 101%
remaining at 1 h [7]: 90.6%
remaining at 1 h [8]: 106%
AUC(0-t) [17]: 119 ng·h/mL
Tmax [18]: 4 h
Cmax [20]: 50 nM
IC50 [1]: 9 nM
SMILES: N#Cc1cc(-c2cc(=O)[nH]c(N)n2)ccc1OCC1CCC(C(=O)O)CC1 (centres undefined)

remaining at 1 h [6]: 98.9%
remaining at 1 h [7]: 90.2%
remaining at 1 h [8]: 33.9%
AUC(0-t) [17]: 19500 ng·h/mL
half-life [19]: 4 h
Cmax [20]: 6600 nM
IC50 [1]: 5 nM
SMILES: CC(C)(COc1ccc(-c2cc(O)nc(N)n2)cc1C#N)C(=O)O

IC50 [1]: 13 nM
SMILES: CC(C)C(C)Oc1ccc(-c2cc(O)nc(N)n2)cc1C#N (centres undefined)

IC50 [1]: 5 nM
SMILES: N#Cc1cc(-c2cc(=O)[nH]c(N)n2)ccc1OCc1ccc(C(=O)O)cc1

IC50 [1]: 9 nM
SMILES: COC(=O)c1ccc(COc2ccc(-c3cc(O)nc(N)n3)cc2C#N)cc1

Stability (Liver): Stable
Stability (Liver microsomes): Stable
Stability (Plasma): Stable
IC50 [1]: 10 nM
SMILES: N#Cc1cc(-c2ccnc(N)n2)ccc1OCC1CCC(C(=O)O)CC1 (centres undefined)
Activity (Rattus norvegicus [3]): Active
